The values below come from patent publication US12077503B2, “Substituted cyclic amides and their use as herbicides” (FMC CORPORATION, priority 2015, dated 2024).

As usually defined, the melting point is the temperature, or range, at which the solid turns liquid. In turn, `O=C1NC[C@H](c2ccc(C(F)(F)F)cn2)[C@H]1C(=O)Nc1cccc(F)c1F` [Compound 1104] returned a melting point of 192 to 196 °C.

`CC(O)c1ccccc1NC(=O)C1C(=O)N(C)CC1c1cccc(C(F)(F)F)c1` (stereo not shown) [Compound 1147] displayed a melting point of 107.5 to 115.4 °C.

Regarding `C=C(C)c1ccc([C@H]2CN(C)C(=O)[C@@H]2C(=O)Nc2ccc(F)c(F)c2F)cc1` [Compound 1148], the melting point lay within 132 to 136 °C.

As to `Cc1cc([C@H]2CN(C)C(=O)[C@@H]2C(=O)Nc2cccc(F)c2F)no1` [Compound 1237], the melting point was in the range of 97 to 101 °C.
